Test results taken from patent US12357650B2, “Methods and compositions for cancer therapies that include delivery of halogenated thymidines and thymidine phosphorlylase inhibitors in combination with radiation” (Shuttle Pharmaceuticals, Inc., priority 2017, dated 2025).
Values joined by “and” are separate entries in the source; they are usually repeats but may differ in a detail not shown here. Identical values can stand only once. Like-named read-outs stand apart in the source and are kept apart here.

How the values were obtained:
cells = conditions: as compared to cells without the defective DNA; cited from earlier work
[1] = system: DNA of tumors and adjacent normal tissue; conditions: small series of patients with head and neck cancers or liver metastases from colorectal cancer; cited from earlier work
[2] = Pharmacokinetic profile of IUdR (100 mg/kg) with and without Tipiracil in rats following single oral administration; type: in vivo, male Sprague-Dawley rats
Method: The purpose of this study was to determine the pharmacokinetics parameters of IUdR in male Sprague-Dawley rats following single oral (PO) administration the IUdR (i.e., Compound A) and Tipiracil (i.e., Compound B).
A control formulation was prepared where Compound A was dissolved in 5% DMSO+95% PBS to yield a final concentration of 10 mg/mL for oral administration. The prepared formulation was white suspension (pH˜7).
A second formulation was prepared where Compound A and Compound B were dissolved in 5% DMSO+95% PBS to yield a final concentration of 10 mg/mL (Compound A) and 0.79 mg/mL (Compound B) for oral administration. The prepared formulation was white suspension (pH˜7).
Animal Acquisition and Assignment to Study. A total of 8 male experimental Sprague-Dawley Rats were transferred from stock colony, and 6 animals were placed on study.
Dose Administration. The test article was administered via a single oral administration.
Sample Collection and Bioanalysis. Blood samples (approximately 200 μL/sample) were collected via jugular vein at Pre-dose and Post-dose (5 min, 15 min, 30 min, 1 h, 2 h, 4 h, 6 h, 8 h and 24 h). Blood samples were placed into tubes containing K2EDTA and centrifuged conditions at 8000 rpm for 6 minutes at 2-8° C. to separate plasma from the samples. Following centrifugation, the resulting plasma were transferred to clean tubes and stored frozen at −80° C. pending bioanalysis.
Pharmacokinetic Analysis. The PK analysis and interpretation of the results were conducted by Medicilon Preclinical Research (Shanghai) LLC. A non-compartmental module of WinNonlin® Professional was used to calculate parameters. Any BLQs (LLOQ=10.0 ng/mL for Compound A) were omitted when calculate the PK parameters.
Clinical Observations. No abnormal observations were noted.

## O=c1[nH]c(=O)n([C@H]2C[C@H](O)[C@@H](CO)O2)cc1I [Compound A, 5-iodo-2′-deoxyuridine]
cells
  increase in susceptibility of cells to the lethal effects of RT: two-three fold
[1]
  % IUdR-DNA incorporation in adjacent normal tissue: less than 1%
  % IUdR-DNA incorporation in tumors: ≤ 5%
[2]; PO-100 mg/kg Compound A alone or + 7.9 mg/kg Compound B, 0.083 hr, individual animals, LLOQ 10 ng/mL
  Plasma Concentration of Compound A: 192.41 ng/mL and 168.24 ng/mL
[2]; PO-100 mg/kg Compound A alone or + 7.9 mg/kg Compound B, 0.25 hr, individual animals, LLOQ 10 ng/mL
  Plasma Concentration of Compound A: 628.30 ng/mL and 538.67 ng/mL
[2]; PO-100 mg/kg Compound A alone or + 7.9 mg/kg Compound B, 0.5 hr, individual animals, LLOQ 10 ng/mL
  Plasma Concentration of Compound A: 755.39 ng/mL and 684.80 ng/mL
[2]; PO-100 mg/kg Compound A alone or + 7.9 mg/kg Compound B, 1 hr, individual animals, LLOQ 10 ng/mL
  Plasma Concentration of Compound A: 596.55 ng/mL and 772.49 ng/mL
[2]; PO-100 mg/kg Compound A alone or + 7.9 mg/kg Compound B, 2 hr, individual animals, LLOQ 10 ng/mL
  Plasma Concentration of Compound A: 645.17 ng/mL and 943.79 ng/mL
[2]; PO-100 mg/kg Compound A alone or + 7.9 mg/kg Compound B, 4 hr, individual animals, LLOQ 10 ng/mL
  Plasma Concentration of Compound A: 316.82 ng/mL and 441.37 ng/mL
[2]; PO-100 mg/kg Compound A alone or + 7.9 mg/kg Compound B, 6 hr, individual animals, LLOQ 10 ng/mL
  Plasma Concentration of Compound A: BLQ and 56.61 ng/mL
[2]; PO-100 mg/kg Compound A alone or + 7.9 mg/kg Compound B, 8 hr, individual animals, LLOQ 10 ng/mL
  Plasma Concentration of Compound A: BLQ
[2]; PO-100 mg/kg Compound A alone or + 7.9 mg/kg Compound B, 24 hr, individual animals, LLOQ 10 ng/mL
  Plasma Concentration of Compound A: BLQ
[2]; male, Sprague-Dawley, rat, plasma, 100 mg/kg, single oral dose, Example 1, sub-heading prints PO-20 (Compound A) alone or + 7.9 (Compound B) mg/kg, individual animals
  AUC(0-inf): 2630 ng·h/mL
[2]; male, Sprague-Dawley, rat, plasma, 100 mg/kg, single oral dose, Example 1, sub-heading prints PO-20 (Compound A) alone or + 7.9 (Compound B) mg/kg, individual animals, read-out: t1/2 of Compound A (converted)
  half-life: 0.89 h
[2]; male, Sprague-Dawley, rat, plasma, oral, 100 mg/kg, PO-100 mg/kg Compound A alone or + 7.9 mg/kg Compound B, 0.083 hr, group mean, read-out: Plasma Concentration of Compound A, Mean
  concentration at 0.083 hr: 184 ng/mL
[2]; male, Sprague-Dawley, rat, plasma, oral, 100 mg/kg, PO-100 mg/kg Compound A alone or + 7.9 mg/kg Compound B, 0.083 hr, individual animals, LLOQ 10 ng/mL, read-out: Plasma Concentration of Compound A
  concentration at 0.083 hr: 191 ng/mL
[2]; male, Sprague-Dawley, rat, plasma, oral, 100 mg/kg, PO-100 mg/kg Compound A alone or + 7.9 mg/kg Compound B, 0.25 hr, group mean, read-out: Plasma Concentration of Compound A, Mean
  concentration at 0.25 hr: 552 ng/mL
[2]; male, Sprague-Dawley, rat, plasma, oral, 100 mg/kg, PO-100 mg/kg Compound A alone or + 7.9 mg/kg Compound B, 0.25 hr, individual animals, LLOQ 10 ng/mL, read-out: Plasma Concentration of Compound A
  concentration at 0.25 hr: 489 ng/mL
[2]; male, Sprague-Dawley, rat, plasma, oral, 100 mg/kg, PO-100 mg/kg Compound A alone or + 7.9 mg/kg Compound B, 0.5 hr, group mean, read-out: Plasma Concentration of Compound A, Mean
  concentration at 0.5 hr: 689 ng/mL
[2]; male, Sprague-Dawley, rat, plasma, oral, 100 mg/kg, PO-100 mg/kg Compound A alone or + 7.9 mg/kg Compound B, 0.5 hr, individual animals, LLOQ 10 ng/mL, read-out: Plasma Concentration of Compound A
  concentration at 0.5 hr: 627 ng/mL
[2]; male, Sprague-Dawley, rat, plasma, oral, 100 mg/kg, PO-100 mg/kg Compound A alone or + 7.9 mg/kg Compound B, 1 hr, group mean, read-out: Plasma Concentration of Compound A, Mean
  concentration at 1 hr: 642 ng/mL
[2]; male, Sprague-Dawley, rat, plasma, oral, 100 mg/kg, PO-100 mg/kg Compound A alone or + 7.9 mg/kg Compound B, 1 hr, individual animals, LLOQ 10 ng/mL, read-out: Plasma Concentration of Compound A
  concentration at 1 hr: 556 ng/mL
[2]; male, Sprague-Dawley, rat, plasma, oral, 100 mg/kg, PO-100 mg/kg Compound A alone or + 7.9 mg/kg Compound B, 2 hr, group mean, read-out: Plasma Concentration of Compound A, Mean
  concentration at 2 hr: 788 ng/mL
[2]; male, Sprague-Dawley, rat, plasma, oral, 100 mg/kg, PO-100 mg/kg Compound A alone or + 7.9 mg/kg Compound B, 2 hr, individual animals, LLOQ 10 ng/mL, read-out: Plasma Concentration of Compound A
  concentration at 2 hr: 774 ng/mL
[2]; male, Sprague-Dawley, rat, plasma, oral, 100 mg/kg, PO-100 mg/kg Compound A alone or + 7.9 mg/kg Compound B, 4 hr, group mean, read-out: Plasma Concentration of Compound A, Mean
  concentration at 4 hr: 345 ng/mL
[2]; male, Sprague-Dawley, rat, plasma, oral, 100 mg/kg, PO-100 mg/kg Compound A alone or + 7.9 mg/kg Compound B, 4 hr, individual animals, LLOQ 10 ng/mL, read-out: Plasma Concentration of Compound A
  concentration at 4 hr: 276 ng/mL
[2]; male, Sprague-Dawley, rat, plasma, oral, 100 mg/kg, PO-100 mg/kg Compound A alone or + 7.9 mg/kg Compound B, 6 hr, group mean (BLQ omitted), read-out: Plasma Concentration of Compound A, Mean
  concentration at 6 hr: 55.3 ng/mL
[2]; male, Sprague-Dawley, rat, plasma, oral, 100 mg/kg, PO-100 mg/kg Compound A alone or + 7.9 mg/kg Compound B, 6 hr, individual animals, LLOQ 10 ng/mL, read-out: Plasma Concentration of Compound A
  concentration at 6 hr: 54 ng/mL
[2]; male, Sprague-Dawley, rat, plasma, oral, 100 mg/kg, PO-100 mg/kg Compound A alone or + 7.9 mg/kg Compound B, 8 hr, individual animals, LLOQ 10 ng/mL
  concentration at 8 hr: 14.1 ng/mL
[2]; male, Sprague-Dawley, rat, plasma, po, 100 mg/kg, oral administration, Example 1 (100 mg/kg IUdR, ± 7.9 mg/kg Tipiracil), comparison table, mean, read-out: AUC(0-t) of Compound A
  AUC(0-t): 2720 ng·h/mL
[2]; male, Sprague-Dawley, rat, plasma, po, 100 mg/kg, oral administration, Example 1 (100 mg/kg IUdR, ± 7.9 mg/kg Tipiracil), comparison table, mean, read-out: Cmax of Compound A
  Cmax: 824 ng/mL
[2]; male, Sprague-Dawley, rat, plasma, po, 100 mg/kg, single oral dose, Example 1, sub-heading prints PO-20 (Compound A) alone or + 7.9 (Compound B) mg/kg, group mean
  Tmax: 1.5 h
